In general, IC50 refers to the point on the concentration scale where inhibition reaches its midpoint.

In PubChem BioAssay AID489023 (Sanford-Burnham Center for Chemical Genomics, 2010) one finds IC50 data, which are given here for 85 compounds.

The test concerns 697B cells, BCR-induced NF-kB luciferase reporter luminescence. Description: B-cell receptor NF-kB reporter inhibition – 697B cells, luciferase luminescence, dose response (AID 489023).

Calls of active or inactive are those of the source. The rule behind the calls is not given here.

Consider `Cc1cc(C)nc(Sc2ccc([N+](=O)[O-])cc2[N+](=O)[O-])n1`, for which the IC50 was 1.95 µM.
The result for `CN(C)S(=O)(=O)c1ccc(NC(=O)N2CCN(c3ccccc3)CC2)cc1` reads > 80 µM (inactive); that for `Cc1cc(C)c2nc(NC(=O)[C@@H](NC(=O)c3cccc(S(=O)(=O)N4CCOCC4)c3)C(C)C)sc2c1`, 16 µM; that for `CCN(CC)CCCN=Cc1c(-c2ccccc2)[nH]n(-c2nc3ccccc3s2)c1=O`, 17.9 µM.
In the case of `CC1=CC(C)(C)Nc2ccc(OC(=O)c3ccco3)cc21`, the IC50 was 8.24 µM.
`ClCc1nnc(-c2ccccc2)o1`: the IC50 was 12.7 µM.
Under `N#CC1=C(N)Oc2cc(Nc3ccccc3)ccc2C1c1ccncc1` (stereo not given) stands 8.6 µM; under `Cc1ccc2nc(NC(=O)CSCC(=O)OCC(=O)c3ccc(Br)cc3)sc2c1`, 3.6 µM; under `COc1cc(OC)cc(-c2cc3nc(C)c(CCC(=O)NCc4ccccc4)c(C)n3n2)c1`, 4.7 µM.
The result for `CCn1c(=O)cc(SCC(=O)N2CCCCC2)c2ccccc21` reads > 80 µM (inactive); that for `CCn1c(=S)[nH]c2cc(S(=O)(=O)N3CCCCC3)ccc21`, 31 µM (inactive); that for `CCN(CC(=O)Nc1c(F)cccc1F)C(=O)c1cc([N+](=O)[O-])ccc1N1CCCCC1`, 13.6 µM.
`N=c1c2c(n(Cc3cccc(Cl)c3)c3c1CCC3)CCCC2`: the IC50 is 59.9 µM (inactive).
Under `COc1ccc(CC(=O)Nc2cccc(-c3ccc4nnc(C)n4n3)c2)cc1` stands 71.7 µM (inactive); under `Cc1csc(NC(=O)CCc2c(C)nc3cc(-c4ccc(Cl)cc4)nn3c2C)n1`, 4.77 µM; under `CCn1c(=O)cc(SCC(=O)N2CCC(C)CC2)c2ccccc21`, > 80 µM (inactive).
With `Cc1c(CCC(=O)N2CCC(C(=O)O)(c3ccccc3)CC2)c(=O)oc2cc3oc4c(c3cc12)CCCC4`, the IC50 is > 80 µM (inactive).
Under `CCC(C)N1C(=O)/C(=C/c2c(NCCCOC(C)C)nc3c(C)cccn3c2=O)SC1=S` (stereo not given) stands > 80 µM (inactive).
Consider `CN1CCN(C(=O)c2ccccc2N(Cc2ccccc2)S(=O)(=O)c2ccccc2)CC1`, for which the IC50 was 29.2 µM (inactive).
Regarding `Cc1ccc(C)c(-n2nnnc2Sc2nnnn2-c2ccccc2)c1`, the IC50 was 1.32 µM.
As for `Cn1cnc([N+](=O)[O-])c1Sc1ccc([N+](=O)[O-])cc1`, the IC50 is 3.61 µM.
For `CCCNC(=O)c1ccc(N2CCC3(CC2)CC(c2cccc(Br)c2)=NO3)c(NC(=O)c2ccc(Cl)c([N+](=O)[O-])c2)c1`, the IC50 is > 80 µM (inactive).
Regarding `Cc1nc2cc(-c3ccc(Cl)cc3)nn2c(C)c1CCC(=O)NC(C)c1ccc2c(c1)OCCO2` (stereo not given), the IC50 was 23.7 µM (inactive).
Turning to `CCOC(=O)c1nn(-c2ccccc2)c(C#N)c1NC(=O)c1nn(CC)cc1Br`, the IC50 is > 80 µM (inactive).
Under `O=C(Cc1cccc2ccccc12)Nc1ccc(-c2cc3ccccc3oc2=O)cc1` stands less than 0.16 µM; under `O=C(CN1C(=O)c2ccccc2S1(=O)=O)c1ccccc1Cl`, 1.13 µM.
For `COc1ccc(C=C(C(C)=O)C(C)=O)cc1OC`, the IC50 is 57.7 µM (inactive).
`COc1cc(C(=O)Nc2cc(C)c(OCC(=O)N3CCOCC3)c(C)c2)cc(OC)c1OC`: the IC50 was > 80 µM (inactive).
Take `CC1Cc2ccccc2N1S(=O)(=O)c1cnc(Cl)c(Br)c1` (stereo not given): the IC50 is 72.9 µM (inactive).
The result for `CCOc1cc(/C=N\Nc2nc(Nc3ccccc3)nc(N3CCOCC3)n2)ccc1OC(=O)c1ccco1` reads 1.25 µM; that for `CCOC(=O)Cc1csc(NC(=S)NC(=O)c2ccc(C)cc2)n1`, 5.88 µM; that for `COc1ccc(C(=O)Nc2nnc(SCC(=O)Nc3ccc(NC(C)=O)cc3)s2)c(OC)c1`, > 80 µM (inactive).
Under `O=C(CCl)Nc1ccccc1Sc1ccccc1` stands 15.9 µM; under `CCCCCCn1c(-c2ccco2)nc2oc3cc(OC)ccc3c(=O)c2c1=O`, > 80 µM (inactive).
As to `CNC(=O)c1cc(Nc2nnc(-c3ccc(O)cc3)c3ccccc23)ccc1OC`, the IC50 was > 80 µM (inactive).
Under `CCN1C(=O)c2cccc3c(S(=O)(=O)NCC4CCCO4)ccc1c23` (stereo not given) stands 69.7 µM (inactive); under `CCc1ccc(-c2nnn(CCC(=O)OC)n2)cc1`, 5.46 µM.
The result for `CCNC(=O)CCc1nc(-c2ccc(C(C)(C)C)cc2)no1` reads less than 0.16 µM.
The result for `COc1ccc(-c2ccc(N(C)C)cc2)cc1[C@H]1[C@H]2C=CC[C@@H](C)[C@@H]2C(=O)N1Cc1ccccc1` reads > 80 µM (inactive); that for `Cc1c(CCC(=O)O)c(=O)oc2cc3oc4c(c3cc12)CCCC4`, 0.27 µM; that for `CC1Cc2ccccc2N1S(=O)(=O)c1cnc(Cl)c(Cl)c1` (stereo not given), > 80 µM (inactive).
As for `Cn1c(=O)c2c(SCC(=O)Nc3ccccc3F)nc(-c3ccccc3F)nc2n(C)c1=O`, the IC50 was 21.8 µM (inactive).
On to `CCn1c(=O)cc(SCC(=O)N2CCN(C)CC2)c2ccccc21`, for which the IC50 is > 80 µM (inactive).
As for `COc1ccc(-n2ncc3c(N4CCC(C(N)=O)CC4)ncnc32)cc1`, the IC50 is > 80 µM (inactive).
The result for `Cc1ccc(CSc2nnc(SCC(=O)N/N=C/C=C/c3ccccc3[N+](=O)[O-])s2)cc1` reads > 80 µM (inactive); that for `O=C(CCl)N1CCN(S(=O)(=O)c2ccc3c(c2)CCC3)CC1`, 5.72 µM.
On to `COc1ccc(OC)c(NC(=O)c2[nH]c(C)c(C(C)=O)c2C)c1`, for which the IC50 was > 80 µM (inactive).
As for `O=C(CCCN1C(=O)/C(=C/c2ccccc2Cl)SC1=S)NNC(=O)c1ccccc1`, the IC50 was 12.5 µM.
As for `Nc1ccc(-c2cc3ccccc3oc2=O)cc1`, the IC50 was 0.39 µM.
In the case of `COc1ccc(C(=O)Nc2cccc(NC(=O)c3ccc(OC)c(OC)c3)n2)cc1OC`, the IC50 is 3.64 µM.
Under `CC1CCC/C=C/C2CC(O)CC2C(O)/C=C/C(=O)O1` (stereo not given) stands > 80 µM (inactive).
`Cc1[nH]c2ccccc2c1/C=N/Nc1nc(Nc2ccccc2)nc(N2CCOCC2)n1`: the IC50 is 3.35 µM.
With `CCN(CC)CCOC(=O)c1ccc(NC(=O)COc2cc(=O)n(CC)c3ccccc23)cc1`, the IC50 was > 80 µM (inactive).
Turning to `N=c1ccn2c(n1)O[C@H]1[C@H](O)[C@@H](CO)O[C@H]12`, the half-inhibitory concentration (IC50) was less than 0.16 µM.
On to `CCC(=O)N(C1=C(NC)C(=O)c2ccccc2C1=O)C(C)C`, for which the IC50 was > 80 µM (inactive).
For `COc1cccc(N2CCN(c3ncnc4c3[nH]c3ccc(F)cc34)CC2C)c1` (stereo not given), the IC50 was 0.79 µM.
Regarding `CN(C)c1cc[n+](Cc2c(Cl)cccc2Cl)cc1`, the IC50 was > 80 µM (inactive).
The result for `CCOC(=O)Cc1ccc(NC(=O)c2ccc(C(C)(C)C)cc2)cc1` reads less than 0.16 µM.
For the compound `Cc1cc(C)c(S(=O)(=O)NCc2ccncc2)c(C)c1`, the IC50 was > 80 µM (inactive).
Take `CC(C)CN(C(=O)COC(=O)C12CC3CC(CC(C3)C1)C2)c1c(N)n(Cc2ccccc2)c(=O)[nH]c1=O`: the IC50 is 5.71 µM.
`O=C(Oc1cccc(/C=N/Nc2nc(N3CCOCC3)nc(N3CCOCC3)n2)c1)c1ccco1`: the IC50 is 18.4 µM.
Regarding `c1ccc(CCNc2ncnc3ccccc23)cc1`, the IC50 is 60.1 µM (inactive).
The result for `CC(C)C[C@@H](N)c1nnc(SCC(=O)c2ccc(Cl)cc2)o1` reads 47.6 µM (inactive); that for `COc1cc(/C(C)=N\NC(N)=S)cc(OC)c1OC`, 70.7 µM (inactive).
Under `COC(=O)c1[nH]c2ccc(C)cc2c1NC(=O)Nc1ccccc1OC` stands > 80 µM (inactive); under `C=C(C)[C@@H]1CCC2(C(=O)O)CC[C@]3(C)[C@H](CC[C@@H]4[C@@]5(C)CCC(=O)C(C)(C)[C@@H]5CC[C@]43C)[C@@H]12` (stereo not given in full), 71.6 µM (inactive).
Under `Cc1ccc(Nc2nc(N3CCOCC3)nc(N3CCOCC3)n2)cc1C` stands 1.33 µM; under `O=C(CCCN1C(=O)/C(=C/c2ccccc2Cl)SC1=S)NNC(=O)c1ccncc1`, 25.7 µM (inactive); under `CC(C)C(c1nnnn1Cc1ccccc1)N(Cc1ccco1)Cc1cccs1` (stereo not given), > 80 µM (inactive).
Turning to `CC(C)CCNC(=O)CCCOc1cc(=O)n(C)c2ccccc12`, the IC50 is 64.3 µM (inactive).
The result for `Cc1cc(-c2cc(C(=O)NCc3ccccc3)on2)nc(S(C)(=O)=O)n1` reads 3.93 µM.
As to `COc1ccc(/C=C2\SC(=O)N(CCCC(=O)Nc3ccc(C(=O)O)cc3)C2=O)cc1OC`, the IC50 is 7.83 µM.
On to `CC1CC(C)(C)Nc2ccc(OC(=O)c3ccco3)cc21` (stereo not given), for which the IC50 is 9.11 µM.
The result for `Cn1c(=NC(=O)CCl)sc2ccccc21` reads 0.59 µM; that for `Cc1cc(OCC(=O)N2CCC(C(N)=O)CC2)c2c3c(c(=O)oc2c1)CCCC3`, > 80 µM (inactive).
With `CNC(=O)CSc1nc2nn(-c3ccccc3)c(=O)c-2c2n1CCCCC2`, the IC50 was 76.9 µM (inactive).
The result for `Cc1nn(C(C)(C)C)c(OC(=O)c2ccc(Br)o2)c1Sc1ccccc1` reads > 80 µM (inactive).
Under `COc1ccc(NS(=O)(=O)c2cc(NC(=O)c3cc(=O)c4ccccc4o3)ccc2OC)cc1` stands > 80 µM (inactive); under `Cc1nc2cc(-c3cccc(F)c3)nn2c(C)c1CCC(=O)NC(C)CCc1ccco1` (stereo not given), 13.8 µM; under `COc1ccc2nc(C)cc(Sc3nc4ccccc4s3)c2c1`, 1.81 µM.
The result for `COc1ccc(/C=C\C(=O)O[C@@H]2C(O)C(O[C@@H]3OC(C)[C@H](O[C@@H]4OCC(O[C@H]5O[C@H](CO)[C@@H](O)C(O)C5O)C(O)C4O)C(O)C3O)[C@H](OC(=O)[C@]34CCC(C)(C)C[C@@H]3C3=CCC5[C@@]6(C)CC(O)C(O[C@@H]7OC(CO)C(O)[C@H](O)[C@H]7O)[C@@](C)(C(=O)O)C6CC[C@@]5(C)[C@]3(CO)CC4)O[C@H]2C)cc1` (stereo not given in full) reads 19.8 µM.
Turning to `CCN(CC)c1ccc(/C=N/N=C(c2ccccc2)c2ccccc2)c(O)c1`, the IC50 is > 80 µM (inactive).
The result for `COc1ccc(C(=O)N/N=C/c2sc(N3CCOCC3)nc2-c2ccccc2)cc1OC` reads 14.4 µM; that for `Cc1c(NC(=O)/C=C/c2cn(-c3ccccc3)nc2-c2ccccc2)c(=O)n(-c2ccccc2)n1C`, > 80 µM (inactive).
Regarding `CC(C)(C)c1ccc(-c2noc(CCC(=O)N3CCOCC3)n2)cc1`, the IC50 is 51.6 µM (inactive).
